# Results published in the supplement of paper PMC10331698.
# ± gives the standard deviation of the averaged measurements.
# Tests used:
# Test in all cases: LOEC (log10 uM (lowest observed effect concentration))
# [1] = compound: O=C(O)C(F)(F)C(F)(F)C(F)(F)C(F)(F)C(F)(F)C(F)(F)C(F)(F)C(F)(F)C(F)(F)C(F)(F)C(F)(F)C(F)(F)F [Perfluorotridecanoic acid]
# Description: (§1)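 BioMAP Diversity Plus panel in human primary cell co-cultures, 4 concentrations in duplicate blinded samples. Responses are log10 fold change versus DMSO control, processed with tcpl v2.1.0. A hit is called when responses at any concentration exceed the cutoff (the larger of 3*bmad or log10(1.2)); the lowest observed effect concentration (modl_ga, log10 uM) is reported for hits.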
# [2] = compound: CNS(=O)(=O)C(F)(F)C(F)(F)C(F)(F)C(F)(F)C(F)(F)C(F)(F)C(F)(F)C(F)(F)F [N-Methylperfluorooctanesulfonamide]
# Description: as §1
# [3] = compound: O=C(O)C(F)(F)C(F)(F)C(F)(F)C(F)(F)C(F)(F)C(F)(F)C(F)(F)C(F)(F)Cl [9-Chloro-perfluorononanoic acid]
# Description: as §1
# Perfluorooctanamidine = compound: N=C(N)C(F)(F)C(F)(F)C(F)(F)C(F)(F)C(F)(F)C(F)(F)C(F)(F)F [Perfluorooctanamidine]
# Description: as §1
# [4] = compound: CC(C)(C)C(=O)CC(=O)C(F)(F)C(F)(F)C(F)(F)F [(Heptafluorobutanoyl)pivaloylmethane]
# Description: as §1
# [5] = compound: C=CC(=O)OCCC(F)(F)C(F)(F)C(F)(F)C(F)(F)F [2-(Perfluorobutyl)ethyl acrylate]
# Description: as §1
# [6] = compound: O=P(O)(O)CCC(F)(F)C(F)(F)C(F)(F)C(F)(F)C(F)(F)C(F)(F)C(F)(F)C(F)(F)F [((Perfluorooctyl)ethyl)phosphonic acid]
# Description: as §1
# [7] = compound: O=C(O)C(F)(F)C(F)(F)C(F)(F)C(F)(F)C(F)(F)C(F)(F)C(F)(F)C(F)(F)C(F)(F)C(F)(F)C(F)(F)C(F)(F)C(F)(F)F [Perfluorotetradecanoic acid]
# Description: as §1
# [8] = compound: O=C(O)C(F)(F)OC(F)(F)C(F)(F)OC(F)(F)C(F)(F)C(F)(F)C(F)(F)F [Perfluoro-3,6-dioxadecanoic acid]
# Description: as §1
# Azathioprine = compound: Cn1cnc([N+](=O)[O-])c1Sc1ncnc2[nH]cnc12 [Azathioprine]
# Description: as §1
# [9] = compound: O=S(=O)(O)C(F)(F)C(F)(F)C(F)(F)C(F)(F)F [Perfluorobutanesulfonic acid]
# Description: as §1
# [10] = compound: O=S(=O)(O)C(F)(F)C(F)(F)C(F)(F)C(F)(F)C(F)(F)C(F)(F)C(F)(F)C(F)(F)F [Perfluorooctanesulfonic acid]
# Description: as §1
# [11] = compound: O=S(=O)(O)C(F)(F)C(F)(F)C(F)(F)C(F)(F)C(F)(F)C(F)(F)C(F)(F)C(F)(F)F [Potassium perfluorooctanesulfonate]
# Description: as §1
# [12] = compound: O=C(O)CCC(F)(F)C(F)(F)C(F)(F)C(F)(F)C(F)(F)F [2H,2H,3H,3H-Perfluorooctanoic acid]
# Description: as §1
# Perfluorooctanamide = compound: NC(=O)C(F)(F)C(F)(F)C(F)(F)C(F)(F)C(F)(F)C(F)(F)C(F)(F)F [Perfluorooctanamide]
# Description: as §1
# [13] = compound: FC(F)(F)C(F)(F)C(F)(F)C(F)(F)C(F)(F)C(F)(F)C(F)(F)CCI [1-Iodo-1H,1H,2H,2H-perfluorononane]
# Description: as §1
test system,measurement,setting,value
3C Proliferation down,LOEC (log10 uM),[1],1.22 ± 0.37
same,LOEC (log10 uM),[2],1.54 ± 0.34
same,LOEC (log10 uM),[3],1.78
same,LOEC (log10 uM),Perfluorooctanamidine,1.78
same,LOEC (log10 uM),[4],1.78
same,LOEC (log10 uM),[5],1.78
same,LOEC (log10 uM),[6],0.801 ± 0.71
same,LOEC (log10 uM),[7],-0.199 ± 0.71
same,LOEC (log10 uM),[8],1.04 ± 1
same,LOEC (log10 uM),Azathioprine,1.48
3C Thrombomodulin up,LOEC (log10 uM),[3],1.78
same,LOEC (log10 uM),[4],1.78
IMphg IL8 up,LOEC (log10 uM),[9],1.78
IMphg IL10 down,LOEC (log10 uM),[3],1.78
same,LOEC (log10 uM),[10],1.78
same,LOEC (log10 uM),[11],1.78
same,LOEC (log10 uM),[12],1.78
same,LOEC (log10 uM),[6],1.78
same,LOEC (log10 uM),[8],1.78
same,LOEC (log10 uM),Azathioprine,1.48
KF3CT MMP9 down,LOEC (log10 uM),Perfluorooctanamide,1.78
same,LOEC (log10 uM),[3],1.3
LPS PGE2 up,LOEC (log10 uM),[4],1.78
same,LOEC (log10 uM),[6],1.78
hDFCGF Proliferation down,LOEC (log10 uM),[1],0.477
same,LOEC (log10 uM),[3],1.78
same,LOEC (log10 uM),[13],0.301
same,LOEC (log10 uM),Perfluorooctanamidine,1.78
same,LOEC (log10 uM),[11],1.78
same,LOEC (log10 uM),[5],1.54 ± 0.34
same,LOEC (log10 uM),[6],1.78
same,LOEC (log10 uM),Azathioprine,1.48
